According to ChEMBL document CHEMBL6071142, “Isoalantolactone/hydroxamic acid hybrids as potent dual STAT3/HDAC inhibitors and self-assembled nanoparticles for cancer therapy” (Eur J Med Chem, 2024):
The source made the active and inactive calls. The rule behind the calls is not given here.

Assays:
[1] = biological target: Histone deacetylase 8 (Homo sapiens, UniProt Q9BY41); experiment: Inhibition of recombinant human HDAC8 using Boc-Lys (trifluroacetyl)-AMC as substrate preincubated with compound for 1 hr followed by substrate addition and measured after 30 mins by microplate reader assay
Chain of Histone deacetylase 8 (Q9BY41 whole entry): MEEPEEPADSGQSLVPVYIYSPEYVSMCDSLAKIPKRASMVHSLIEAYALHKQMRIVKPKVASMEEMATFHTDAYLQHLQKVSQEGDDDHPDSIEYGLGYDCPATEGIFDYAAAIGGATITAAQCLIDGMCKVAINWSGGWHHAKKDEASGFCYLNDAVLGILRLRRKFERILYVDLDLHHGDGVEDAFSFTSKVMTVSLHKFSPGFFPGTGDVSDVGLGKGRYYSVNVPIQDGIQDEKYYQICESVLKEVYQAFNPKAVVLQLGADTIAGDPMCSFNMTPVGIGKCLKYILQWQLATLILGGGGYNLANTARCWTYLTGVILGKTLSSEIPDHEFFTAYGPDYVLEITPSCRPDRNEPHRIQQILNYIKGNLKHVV

[2] = biological target: Polyamine deacetylase HDAC10 (Homo sapiens, UniProt Q969S8); experiment: Inhibition of recombinant human HDAC10 using Boc-Lys (trifluroacetyl)-AMC as substrate preincubated with compound for 1 hr followed by substrate addition and measured after 30 mins by microplate reader assay
Chain of Polyamine deacetylase HDAC10 (Q969S8 whole entry): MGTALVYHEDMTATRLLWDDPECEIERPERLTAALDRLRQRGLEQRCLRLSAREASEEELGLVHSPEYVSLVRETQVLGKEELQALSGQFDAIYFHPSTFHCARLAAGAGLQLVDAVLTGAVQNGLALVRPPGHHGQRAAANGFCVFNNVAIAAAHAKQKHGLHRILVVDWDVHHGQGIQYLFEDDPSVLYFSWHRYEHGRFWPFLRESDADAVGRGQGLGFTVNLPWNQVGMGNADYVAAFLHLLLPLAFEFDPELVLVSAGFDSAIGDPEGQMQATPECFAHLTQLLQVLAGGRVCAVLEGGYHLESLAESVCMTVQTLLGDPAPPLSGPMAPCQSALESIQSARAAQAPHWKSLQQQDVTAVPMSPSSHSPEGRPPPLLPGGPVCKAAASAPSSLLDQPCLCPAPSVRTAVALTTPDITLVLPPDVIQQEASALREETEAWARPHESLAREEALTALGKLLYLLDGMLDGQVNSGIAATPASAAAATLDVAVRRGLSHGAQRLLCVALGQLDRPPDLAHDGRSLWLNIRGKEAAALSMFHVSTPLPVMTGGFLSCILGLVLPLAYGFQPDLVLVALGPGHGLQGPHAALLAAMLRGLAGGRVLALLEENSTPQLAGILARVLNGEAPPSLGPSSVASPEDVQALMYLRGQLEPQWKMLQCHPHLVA

[3] = biological target: Signal transducer and activator of transcription 3 (Homo sapiens, UniProt P40763); experiment: Binding affinity to STAT3 (unknown origin) assessed as dissociation constant by SPR assay
Chain of Signal transducer and activator of transcription 3 (P40763 whole entry): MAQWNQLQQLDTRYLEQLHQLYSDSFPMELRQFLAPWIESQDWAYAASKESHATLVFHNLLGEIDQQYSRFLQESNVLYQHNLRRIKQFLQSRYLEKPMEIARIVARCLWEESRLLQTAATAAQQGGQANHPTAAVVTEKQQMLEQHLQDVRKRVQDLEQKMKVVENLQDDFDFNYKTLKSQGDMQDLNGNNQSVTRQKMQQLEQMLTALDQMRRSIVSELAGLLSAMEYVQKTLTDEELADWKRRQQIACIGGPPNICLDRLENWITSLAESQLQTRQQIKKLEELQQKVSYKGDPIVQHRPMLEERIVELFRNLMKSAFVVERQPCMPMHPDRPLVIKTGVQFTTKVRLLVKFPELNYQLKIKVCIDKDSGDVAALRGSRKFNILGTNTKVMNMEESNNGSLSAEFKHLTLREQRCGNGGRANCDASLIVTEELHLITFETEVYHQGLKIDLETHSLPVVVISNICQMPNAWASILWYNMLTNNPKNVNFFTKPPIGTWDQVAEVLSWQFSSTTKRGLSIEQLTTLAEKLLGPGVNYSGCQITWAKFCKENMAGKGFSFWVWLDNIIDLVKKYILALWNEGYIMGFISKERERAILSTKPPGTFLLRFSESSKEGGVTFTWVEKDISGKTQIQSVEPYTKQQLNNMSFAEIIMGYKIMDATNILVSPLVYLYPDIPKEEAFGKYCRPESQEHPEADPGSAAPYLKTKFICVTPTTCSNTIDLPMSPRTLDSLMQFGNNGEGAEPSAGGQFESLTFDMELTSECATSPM

[4] = Binding affinity to STAT2 (unknown origin) assessed as dissociation constant by SPR assay; parameters: species or system Homo sapiens
[5] = biological target: Signal transducer and activator of transcription 5B (Homo sapiens, UniProt P51692); experiment: Binding affinity to STAT5B (unknown origin) assessed as dissociation constant by SPR assay
Chain of Signal transducer and activator of transcription 5B (P51692 whole entry): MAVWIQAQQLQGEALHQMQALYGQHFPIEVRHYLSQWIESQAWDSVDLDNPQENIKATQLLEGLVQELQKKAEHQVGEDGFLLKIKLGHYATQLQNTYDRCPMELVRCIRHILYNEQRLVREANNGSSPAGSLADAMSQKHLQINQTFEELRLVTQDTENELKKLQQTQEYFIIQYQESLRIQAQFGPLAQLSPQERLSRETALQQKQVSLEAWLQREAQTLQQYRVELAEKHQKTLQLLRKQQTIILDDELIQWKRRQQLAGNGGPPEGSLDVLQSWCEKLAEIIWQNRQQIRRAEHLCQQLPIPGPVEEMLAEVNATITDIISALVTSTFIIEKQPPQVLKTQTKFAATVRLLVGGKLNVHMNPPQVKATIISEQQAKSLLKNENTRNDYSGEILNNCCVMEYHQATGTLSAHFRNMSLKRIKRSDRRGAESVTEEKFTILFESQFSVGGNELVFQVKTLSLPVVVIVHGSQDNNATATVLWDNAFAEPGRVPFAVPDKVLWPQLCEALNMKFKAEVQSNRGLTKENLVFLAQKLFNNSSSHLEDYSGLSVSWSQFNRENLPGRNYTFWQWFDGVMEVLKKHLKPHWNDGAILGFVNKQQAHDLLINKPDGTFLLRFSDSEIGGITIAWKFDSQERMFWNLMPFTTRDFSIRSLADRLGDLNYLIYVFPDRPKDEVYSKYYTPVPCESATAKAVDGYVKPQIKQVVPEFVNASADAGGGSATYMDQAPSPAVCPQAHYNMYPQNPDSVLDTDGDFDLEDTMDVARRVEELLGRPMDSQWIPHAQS

[6] = biological target: Signal transducer and activator of transcription 6 (Homo sapiens, UniProt P42226); experiment: Binding affinity to STAT6 (unknown origin) assessed as dissociation constant by SPR assay
Chain of Signal transducer and activator of transcription 6 (P42226 whole entry): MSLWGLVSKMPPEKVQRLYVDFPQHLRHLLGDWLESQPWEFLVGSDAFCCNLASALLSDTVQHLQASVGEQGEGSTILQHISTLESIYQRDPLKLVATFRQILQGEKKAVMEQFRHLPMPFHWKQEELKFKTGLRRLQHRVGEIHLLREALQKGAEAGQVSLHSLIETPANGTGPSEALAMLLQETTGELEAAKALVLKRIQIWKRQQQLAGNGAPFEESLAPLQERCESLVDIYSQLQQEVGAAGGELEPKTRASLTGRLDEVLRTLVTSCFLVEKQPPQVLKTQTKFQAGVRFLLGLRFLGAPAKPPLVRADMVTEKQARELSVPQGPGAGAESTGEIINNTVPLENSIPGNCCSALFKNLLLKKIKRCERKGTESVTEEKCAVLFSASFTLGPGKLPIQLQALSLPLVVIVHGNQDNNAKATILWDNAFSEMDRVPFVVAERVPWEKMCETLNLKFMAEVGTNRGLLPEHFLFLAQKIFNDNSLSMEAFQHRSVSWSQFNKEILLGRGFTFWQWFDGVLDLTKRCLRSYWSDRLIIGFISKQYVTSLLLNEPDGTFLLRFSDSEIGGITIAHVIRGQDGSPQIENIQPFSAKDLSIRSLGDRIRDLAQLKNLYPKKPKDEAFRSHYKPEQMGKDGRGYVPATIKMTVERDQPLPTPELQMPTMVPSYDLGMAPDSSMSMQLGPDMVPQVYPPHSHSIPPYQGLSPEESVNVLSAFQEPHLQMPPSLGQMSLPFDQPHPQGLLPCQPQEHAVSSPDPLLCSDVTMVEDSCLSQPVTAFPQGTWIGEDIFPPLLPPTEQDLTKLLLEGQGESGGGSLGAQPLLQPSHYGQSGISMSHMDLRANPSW

[7] = system: HeLa; experiment: cells; assay type: functional, cell-based; settings: Homo sapiens, 72 h
Description: Antiproliferative activity against human Hela cells assessed as inhibition of cell proliferation incubated for 72 hrs by CCK-8 assay

[8] = biological target: Protein deacetylase HDAC6 (Homo sapiens) (UniProt Q9UBN7); experiment: Inhibition of HDAC6 in human A549 cells assessed as increase in Ac-tubulin at 0.5 uM incubated for 12 hrs by Western blot analysis; assay type: cell-based
Chain of Protein deacetylase HDAC6 (Homo sapiens) (Q9UBN7 whole entry): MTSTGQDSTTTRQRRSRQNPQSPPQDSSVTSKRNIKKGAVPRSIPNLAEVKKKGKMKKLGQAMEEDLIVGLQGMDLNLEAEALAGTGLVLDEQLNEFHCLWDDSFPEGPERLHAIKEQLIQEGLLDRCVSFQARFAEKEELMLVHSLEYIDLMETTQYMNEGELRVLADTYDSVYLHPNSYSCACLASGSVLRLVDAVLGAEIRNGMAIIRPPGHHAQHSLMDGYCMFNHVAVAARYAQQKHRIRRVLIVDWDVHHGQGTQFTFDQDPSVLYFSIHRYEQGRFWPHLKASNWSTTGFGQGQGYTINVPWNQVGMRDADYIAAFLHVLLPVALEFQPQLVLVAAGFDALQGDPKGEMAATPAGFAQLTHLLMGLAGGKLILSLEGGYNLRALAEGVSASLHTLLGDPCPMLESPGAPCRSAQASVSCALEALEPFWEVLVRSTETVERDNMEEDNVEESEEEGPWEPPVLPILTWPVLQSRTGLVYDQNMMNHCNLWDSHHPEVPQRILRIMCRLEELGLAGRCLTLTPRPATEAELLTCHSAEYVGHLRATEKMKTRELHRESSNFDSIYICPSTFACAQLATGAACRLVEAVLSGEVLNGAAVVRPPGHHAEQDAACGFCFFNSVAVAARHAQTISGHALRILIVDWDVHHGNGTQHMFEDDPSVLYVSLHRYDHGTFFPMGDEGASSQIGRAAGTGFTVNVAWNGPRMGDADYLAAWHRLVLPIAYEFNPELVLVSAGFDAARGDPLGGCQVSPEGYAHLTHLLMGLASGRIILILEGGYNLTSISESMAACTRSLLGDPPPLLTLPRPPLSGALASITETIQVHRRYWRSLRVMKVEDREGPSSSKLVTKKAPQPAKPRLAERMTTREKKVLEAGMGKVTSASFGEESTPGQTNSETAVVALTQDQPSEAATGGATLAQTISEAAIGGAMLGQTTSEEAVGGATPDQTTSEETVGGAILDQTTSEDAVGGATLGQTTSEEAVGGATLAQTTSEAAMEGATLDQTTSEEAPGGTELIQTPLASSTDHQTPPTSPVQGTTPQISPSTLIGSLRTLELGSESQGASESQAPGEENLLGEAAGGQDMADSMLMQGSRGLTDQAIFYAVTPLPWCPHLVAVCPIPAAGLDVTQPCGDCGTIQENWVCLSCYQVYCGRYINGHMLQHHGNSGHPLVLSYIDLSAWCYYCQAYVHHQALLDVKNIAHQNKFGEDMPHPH

[9] = system: A549; experiment: Induction of autophagy in human A549 cells transfected with mRFP-GFP-LC3 assessed as increase in LC3-II:LC3-I protein level at 0.5 uM by Western blot analysis; assay type: functional, cell-based; settings: time 0-72 hrs, TDE = time-dependent effect
[10] = system: A549; experiment: Induction of autophagy in human A549 cells transfected with mRFP-GFP-LC3 at 0.5 uM incubated for 24 hrs by confocal microscopic analysis; assay type: functional, cell-based
[11] = system: A549; experiment: Induction of autophagy in human A549 cells transfected with mRFP-GFP-LC3 assessed as increase in yellow puncta at 0.5 uM incubated for 24 hrs by confocal microscopic analysis; assay type: functional, cell-based
[12] = system: A549; experiment: Induction of apoptosis in human A549 cells assessed as early apoptotic cells at 2 uM incubated for 24 hrs by Annexin V-FITC/PI staining based flow cytometric analysis (reference value: 1.53%); assay type: functional
[13] = system: A549; experiment: Induction of apoptosis in human A549 cells assessed as necrotic cells at 2 uM incubated for 24 hrs by Annexin V-FITC/PI staining based flow cytometric analysis (reference value: 1.20%); assay type: functional
[14] = system: A549; experiment: Induction of apoptosis in human A549 cells assessed as early apoptotic cells at 4 uM incubated for 24 hrs by Annexin V-FITC/PI staining based flow cytometric analysis (reference value: 1.53%); assay type: functional
[15] = system: A549; experiment: Induction of apoptosis in human A549 cells assessed as late apoptotic cells at 4 uM incubated for 24 hrs by Annexin V-FITC/PI staining based flow cytometric analysis (reference value: 2.18%); assay type: functional
[16] = system: A549; experiment: Induction of apoptosis in human A549 cells at 4 uM incubated for 24 hrs by Annexin V-FITC/PI staining based flow cytometric analysis; assay type: functional
[17] = system: A549; experiment: In vivo antitumor activity against human A549 cells xenografted in female BALB/c nu/nu mouse assessed as Ac-tubulin at 5 mg/kg, iv administered every 3 days for 9 days by Western blotting analysis; assay type: functional, organism-based; settings: time 3.0 day
[18] = Toxicity in female BALB/c nu/nu mouse xenografted with human A549 cells assessed as effect on body weight at 5 mg/kg, iv and measured regularly; assay type: organism-based; settings: in vivo
[19] = Toxicity in female BALB/c nu/nu mouse xenografted with human A549 cells assessed as effect on lung at 2.5 mg/kg, iv by H and E staining based analysis; assay type: organism-based; settings: in vivo
[20] = Toxicity in female BALB/c nu/nu mouse xenografted with human A549 cells assessed as effect on heart at 5 mg/kg, iv by H and E staining based analysis; assay type: organism-based; settings: in vivo
[21] = Toxicity in female BALB/c nu/nu mouse xenografted with human A549 cells assessed as effect on kidney at 2.5 mg/kg, iv by H and E staining based analysis; assay type: organism-based; settings: in vivo
[22] = Toxicity in female BALB/c nu/nu mouse xenografted with human A549 cells assessed as effect on liver at 5 mg/kg, iv by H and E staining based analysis; assay type: organism-based; settings: in vivo
[23] = Toxicity in female BALB/c nu/nu mouse xenografted with human A549 cells assessed as effect on spleen at 2.5 mg/kg, iv by H and E staining based analysis; assay type: organism-based; settings: in vivo
[24] = system: HepG2; experiment: Anticancer activity against human HepG2 cells assessed as cell viability incubated for 72 hrs using self assembled nanoparticle as source of compound by CCK-8 assay; assay type: functional, cell-based; settings: HepG2, 72 h
[25] = Drug accumulation in nude mouse xenografted with A549 cells assessed as increase in fluorescence at 5 mg/kg, iv using chlorine e6 loaded self-assembled nanoparticle as source of compound incubated for 24 hrs by ex-vivo fluorescence based analysis; assay type: ADME, organism-based
[26] = Biodistribution in spleen of nude mouse xenografted with A549 cells at 5 mg/kg, iv using chlorine e6 loaded self-assembled nanoparticle as source of compound incubated for 24 hrs by ex-vivo fluorescence based LC-MS/MS analysis; assay type: ADME, organism-based
[27] = Biodistribution in lung of nude mouse xenografted with A549 cells at 5 mg/kg, iv using chlorine e6 loaded self-assembled nanoparticle as source of compound incubated for 24 hrs by ex-vivo fluorescence based LC-MS/MS analysis; assay type: ADME, organism-based
[28] = system: HCT-116; experiment: cells; settings: Homo sapiens, HCT-116, 72 h
Description: Antiproliferative activity against human HCT-116 cells assessed as inhibition of cell proliferation incubated for 72 hrs by CCK-8 assay

[29] = system: A549; experiment: Induction of autophagy in human A549 cells assessed as upregulation of LC3-II at 4 uM incubated for 12 hrs by Western blot analysis
[30] = system: A549; experiment: In vivo antitumor activity against human A549 cells xenografted in female BALB/c nu/nu mouse assessed as reduction in tumor weight at 5 mg/kg, iv administered every 3 days for 18 days using self assembled nanoparticle as source of compound and measured every 3 days; settings: time 3.0 day

C=C1C(=O)O[C@@H]2C[C@@]3(C)CC[C@@H](OC(=O)[C@H](C)NC(=O)c4ccc(/C=C/C(=O)NO)cc4)C(=C)[C@@H]3C[C@H]12
IC50 [1]: 1420 nM | IC50 [2]: 57.4 nM | Kd [3]: 2520 nM | Kd [4]: Not Active | Kd [5]: Not Active | Kd [6]: Not Active | IC50 [7]: 130 nM | inhibition [8]: Active | Activity [9]: Tde | Activity [10]: Active | Activity [11]: Active | Activity [12]: 4.07% | Activity [13]: 1.59% | Activity [14]: 5.3% | Activity [15]: 35.53% | Activity [16]: 40% | Activity [17]: Active | Activity [18]: Non-Toxic | Activity [19]: Non-Toxic | Activity [20]: Non-Toxic | Activity [21]: Non-Toxic | Activity [22]: Non-Toxic | Activity [23]: Non-Toxic | IC50 [24]: 170 nM | Drug uptake [25]: Active | Drug uptake [26]: Active | Drug uptake [27]: Active | IC50 [28]: 40 nM | Activity [29]: Active | Activity [30]: Active
